Data taken from PubChem BioAssay (NCI).
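Cultured in 96-well plates, cells were exposed to test compound for 48 hours across five concentrations. Here, GI50 denotes the concentration required for 50% inhibition of growth. The concentration for full growth arrest is given as TGI.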

Experiments:
Assay in all cases: growth of human tumour cells (NCI), 48 h; in the data active = GI50 below about 0.43 µM; inactive = the rest
CAKI-1 renal = system: CAKI-1 renal
SK-MEL-2 melanoma = system: SK-MEL-2 melanoma
OVCAR-5 ovarian = system: OVCAR-5 ovarian
MOLT-4 leukemia = system: MOLT-4 leukemia
RXF 393 renal = system: RXF 393 renal
SF-539 CNS = system: SF-539 CNS
COLO 205 colon = system: COLO 205 colon
TK-10 renal = system: TK-10 renal
SNB-75 CNS = system: SNB-75 CNS
SK-OV-3 ovarian = system: SK-OV-3 ovarian
MDA-MB-231 breast = system: MDA-MB-231 breast
786-0 renal = system: 786-0 renal
HOP-62 NSCLC = system: HOP-62 NSCLC
SW-620 colon = system: SW-620 colon
OVCAR-3 ovarian = system: OVCAR-3 ovarian
SK-MEL-5 melanoma = system: SK-MEL-5 melanoma
UO-31 renal = system: UO-31 renal
HOP-92 NSCLC = system: HOP-92 NSCLC
SK-MEL-28 melanoma = system: SK-MEL-28 melanoma
MALME-3M melanoma = system: MALME-3M melanoma
HCT-15 colon = system: HCT-15 colon
NCI-H460 lung = system: NCI-H460 lung
RPMI-8226 leukemia = system: RPMI-8226 leukemia
NCI/ADR-RES ovarian = system: NCI/ADR-RES ovarian
NCI-H23 lung = system: NCI-H23 lung
IGROV1 ovarian = system: IGROV1 ovarian
ACHN renal = system: ACHN renal
SN12C renal = system: SN12C renal
DU-145 prostate = system: DU-145 prostate
HT29 colon = system: HT29 colon
CCRF-CEM leukemia = system: CCRF-CEM leukemia
KM12 colon = system: KM12 colon
BT-549 breast = system: BT-549 breast
HCT-116 colon = system: HCT-116 colon
MDA-MB-435 = system: MDA-MB-435
A549 NSCLC = system: A549 NSCLC
UACC-62 melanoma = system: UACC-62 melanoma
SNB-19 CNS = system: SNB-19 CNS
M14 melanoma = system: M14 melanoma
PC-3 prostate = system: PC-3 prostate
SF-295 CNS = system: SF-295 CNS
HS 578T breast = system: HS 578T breast
U251 CNS = system: U251 CNS
EKVX NSCLC = system: EKVX NSCLC
OVCAR-8 ovarian = system: OVCAR-8 ovarian
T-47D breast = system: T-47D breast
OVCAR-4 ovarian = system: OVCAR-4 ovarian
SF-268 CNS = system: SF-268 CNS
A498 renal = system: A498 renal
NCI-H226 lung = system: NCI-H226 lung
UACC-257 melanoma = system: UACC-257 melanoma
HL-60(TB) leukemia = system: HL-60(TB) leukemia
LOX IMVI melanoma = system: LOX IMVI melanoma
HCC-2998 colon = system: HCC-2998 colon
NCI-H522 lung = system: NCI-H522 lung
SR leukemia = system: SR leukemia
K-562 leukemia = system: K-562 leukemia

C=C1C(=O)O[C@H]2[C@H]1CC/C(Cn1cc(CNC(=O)Cc3cn(C(=O)c4ccc(Cl)cc4)c4ccc(OC)cc34)nn1)=C\CC[C@@]1(C)O[C@@H]21
3.02 µM: TGI (786-0 renal) | TGI (OVCAR-4 ovarian)
6.16 µM: TGI (MOLT-4 leukemia)
3.05 µM: TGI (UO-31 renal)
15.1 µM: TGI (HOP-62 NSCLC)
2.4 µM: TGI (CCRF-CEM leukemia)
3.21 µM: TGI (SN12C renal)
10.7 µM: TGI (HCT-15 colon)
3.55 µM: TGI (U251 CNS)
4.22 µM: TGI (COLO 205 colon)
8.3 µM: TGI (OVCAR-8 ovarian)
3.07 µM: TGI (SK-MEL-28 melanoma)
7.23 µM: TGI (KM12 colon)
4.02 µM: TGI (SNB-75 CNS)
3.19 µM: TGI (OVCAR-3 ovarian)
3.12 µM: TGI (MDA-MB-231 breast)
3.34 µM: TGI (OVCAR-5 ovarian)
6.78 µM: TGI (HS 578T breast)
2.55 µM: TGI (HCT-116 colon)
3.24 µM: TGI (TK-10 renal)
6.7 µM: TGI (NCI-H23 lung)
3.45 µM: TGI (MDA-MB-435)
active: GI50 (CCRF-CEM leukemia) 0.384 µM
3.18 µM: TGI (MALME-3M melanoma) | TGI (UACC-62 melanoma)
3.71 µM: TGI (ACHN renal) | TGI (PC-3 prostate)
3.52 µM: TGI (SF-268 CNS)
5.05 µM: TGI (T-47D breast)
> 100 µM: TGI (NCI/ADR-RES ovarian)
2.65 µM: TGI (SW-620 colon) | TGI (HOP-92 NSCLC)
32.9 µM: TGI (SK-OV-3 ovarian)
2.59 µM: TGI (RXF 393 renal)
3.39 µM: TGI (UACC-257 melanoma)
2.89 µM: TGI (CAKI-1 renal)
13.2 µM: TGI (NCI-H460 lung)
4.18 µM: TGI (SK-MEL-2 melanoma)
4.77 µM: TGI (SNB-19 CNS)
3.5 µM: TGI (HT29 colon)
3.41 µM: TGI (BT-549 breast) | TGI (NCI-H226 lung)
3.35 µM: TGI (DU-145 prostate)
25.7 µM: TGI (SF-295 CNS)
7.33 µM: TGI (EKVX NSCLC)
29.6 µM: TGI (A549 NSCLC)
5.21 µM: TGI (RPMI-8226 leukemia)
3.32 µM: TGI (IGROV1 ovarian)
3.28 µM: TGI (SK-MEL-5 melanoma) | TGI (M14 melanoma)
2.96 µM: TGI (SF-539 CNS)
inactive: GI50 (CAKI-1 renal) 1.49 µM | GI50 (SK-MEL-2 melanoma) 2.01 µM | GI50 (OVCAR-5 ovarian) 1.66 µM | GI50 (MOLT-4 leukemia) 2 µM | GI50 (RXF 393 renal) 1.25 µM | GI50 (SF-539 CNS) 1.57 µM | GI50 (COLO 205 colon) 2.04 µM | GI50 (TK-10 renal) 1.77 µM | GI50 (SNB-75 CNS) 1.54 µM | GI50 (SK-OV-3 ovarian) 16.1 µM | GI50 (MDA-MB-231 breast) 1.58 µM | GI50 (786-0 renal) 1.59 µM | GI50 (HOP-62 NSCLC) 3.91 µM | GI50 (SW-620 colon) 0.932 µM | GI50 (OVCAR-3 ovarian) 1.61 µM | GI50 (SK-MEL-5 melanoma) 1.77 µM | GI50 (UO-31 renal) 1.53 µM | GI50 (HOP-92 NSCLC) 1.21 µM | GI50 (SK-MEL-28 melanoma) 1.62 µM | GI50 (MALME-3M melanoma) 1.62 µM | GI50 (HCT-15 colon) 2.77 µM | GI50 (NCI-H460 lung) 3.86 µM | GI50 (RPMI-8226 leukemia) 1.59 µM | GI50 (NCI/ADR-RES ovarian) 46.3 µM | GI50 (NCI-H23 lung) 2.58 µM | GI50 (IGROV1 ovarian) 1.71 µM | GI50 (ACHN renal) 1.92 µM | GI50 (SN12C renal) 1.62 µM | GI50 (DU-145 prostate) 1.75 µM | GI50 (HT29 colon) 1.67 µM | GI50 (KM12 colon) 2.78 µM | GI50 (BT-549 breast) 1.61 µM | GI50 (HCT-116 colon) 1.19 µM | GI50 (MDA-MB-435) 1.71 µM | GI50 (A549 NSCLC) 12.7 µM | GI50 (UACC-62 melanoma) 1.63 µM | GI50 (SNB-19 CNS) 2.14 µM | GI50 (M14 melanoma) 1.65 µM | GI50 (PC-3 prostate) 1.89 µM | GI50 (SF-295 CNS) 5.78 µM | GI50 (HS 578T breast) 2.61 µM | GI50 (U251 CNS) 1.89 µM | GI50 (EKVX NSCLC) 2.29 µM | GI50 (OVCAR-8 ovarian) 2.62 µM | GI50 (T-47D breast) 1.73 µM | GI50 (OVCAR-4 ovarian) 1.44 µM | GI50 (SF-268 CNS) 1.7 µM | GI50 (A498 renal) 2.51 µM | GI50 (NCI-H226 lung) 1.76 µM | GI50 (UACC-257 melanoma) 1.75 µM
8.24 µM: TGI (A498 renal)

CCOc1cc2ncc(C#N)c(Nc3ccc(OCc4cccc(F)c4)c(Cl)c3)c2cc1NC(=O)CC1CCSS1 (stereo not drawn)
0.948 µM: TGI (NCI-H460 lung)
> 15.1 µM: TGI (HOP-62 NSCLC)
> 19.3 µM: TGI (SK-MEL-28 melanoma)
> 25 µM: TGI (CAKI-1 renal) | TGI (HL-60(TB) leukemia) | TGI (OVCAR-5 ovarian) | TGI (SF-539 CNS) | TGI (COLO 205 colon) | TGI (SNB-75 CNS) | TGI (MDA-MB-231 breast) | TGI (786-0 renal) | TGI (SW-620 colon) | TGI (SK-MEL-5 melanoma) | TGI (UO-31 renal) | TGI (HOP-92 NSCLC) | TGI (MALME-3M melanoma) | TGI (HCT-15 colon) | TGI (RPMI-8226 leukemia) | TGI (NCI/ADR-RES ovarian) | TGI (NCI-H23 lung) | TGI (ACHN renal) | TGI (SN12C renal) | TGI (HT29 colon) | TGI (CCRF-CEM leukemia) | TGI (NCI-H522 lung) | TGI (BT-549 breast) | TGI (UACC-62 melanoma) | TGI (SR leukemia) | TGI (SNB-19 CNS) | TGI (SF-295 CNS) | TGI (HS 578T breast) | TGI (U251 CNS) | TGI (OVCAR-8 ovarian) | TGI (T-47D breast) | TGI (A498 renal) | TGI (K-562 leukemia) | TGI (NCI-H226 lung) | TGI (UACC-257 melanoma)
1.01 µM: TGI (LOX IMVI melanoma)
15.8 µM: TGI (RXF 393 renal)
> 14.3 µM: TGI (EKVX NSCLC)
> 7.13 µM: TGI (SK-MEL-2 melanoma)
1.16 µM: TGI (A549 NSCLC)
3.02 µM: TGI (SF-268 CNS)
5.91 µM: TGI (PC-3 prostate)
0.915 µM: TGI (M14 melanoma)
inactive: GI50 (CAKI-1 renal) 1.77 µM | GI50 (HL-60(TB) leukemia) 3.48 µM | GI50 (SK-MEL-2 melanoma) 0.99 µM | GI50 (LOX IMVI melanoma) 0.447 µM | GI50 (OVCAR-5 ovarian) > 25 µM | GI50 (RXF 393 renal) 2.35 µM | GI50 (SF-539 CNS) 2.28 µM | GI50 (COLO 205 colon) 2.39 µM | GI50 (TK-10 renal) 0.916 µM | GI50 (SNB-75 CNS) > 25 µM | GI50 (SK-OV-3 ovarian) 0.476 µM | GI50 (MDA-MB-231 breast) 1.02 µM | GI50 (786-0 renal) > 13.8 µM | GI50 (SW-620 colon) > 25 µM | GI50 (OVCAR-3 ovarian) 1.09 µM | GI50 (SK-MEL-5 melanoma) 2.39 µM | GI50 (UO-31 renal) 1.04 µM | GI50 (HOP-92 NSCLC) > 11.5 µM | GI50 (SK-MEL-28 melanoma) 1.2 µM | GI50 (MALME-3M melanoma) > 22.3 µM | GI50 (HCT-15 colon) 2.76 µM | GI50 (NCI-H460 lung) 0.465 µM | GI50 (RPMI-8226 leukemia) > 25 µM | GI50 (NCI/ADR-RES ovarian) > 25 µM | GI50 (NCI-H23 lung) 2.08 µM | GI50 (IGROV1 ovarian) 0.578 µM | GI50 (ACHN renal) 3.1 µM | GI50 (SN12C renal) > 6.3 µM | GI50 (HCC-2998 colon) 0.484 µM | GI50 (DU-145 prostate) 0.561 µM | GI50 (HT29 colon) 0.907 µM | GI50 (NCI-H522 lung) > 6.9 µM | GI50 (KM12 colon) 0.49 µM | GI50 (BT-549 breast) 1.87 µM | GI50 (HCT-116 colon) 0.431 µM | GI50 (MDA-MB-435) 0.596 µM | GI50 (A549 NSCLC) 0.542 µM | GI50 (UACC-62 melanoma) > 25 µM | GI50 (SR leukemia) 0.68 µM | GI50 (SNB-19 CNS) > 25 µM | GI50 (M14 melanoma) 0.45 µM | GI50 (PC-3 prostate) 0.801 µM | GI50 (SF-295 CNS) > 25 µM | GI50 (HS 578T breast) 4.12 µM | GI50 (U251 CNS) > 6.88 µM | GI50 (EKVX NSCLC) 0.74 µM | GI50 (OVCAR-8 ovarian) 6.36 µM | GI50 (T-47D breast) 0.978 µM | GI50 (OVCAR-4 ovarian) 0.539 µM | GI50 (SF-268 CNS) 0.727 µM | GI50 (A498 renal) > 25 µM | GI50 (K-562 leukemia) 0.902 µM | GI50 (NCI-H226 lung) 11 µM | GI50 (UACC-257 melanoma) 24.5 µM
active: GI50 (CCRF-CEM leukemia) 0.146 µM
0.974 µM: TGI (HCC-2998 colon)
1.12 µM: TGI (KM12 colon)
9.3 µM: TGI (OVCAR-3 ovarian)
6 µM: TGI (TK-10 renal)
1.36 µM: TGI (DU-145 prostate) | TGI (OVCAR-4 ovarian)
1.07 µM: TGI (HCT-116 colon)
> 6.27 µM: TGI (IGROV1 ovarian)
0.905 µM: TGI (SK-OV-3 ovarian)
1.52 µM: TGI (MDA-MB-435)
